Holding throughout (type): biochemical
For assay [1], the target named is T1, human DNA polymerase β (Homo sapiens, UniProt P06746).
T1 construct: purchased CHIMERx 1077-1
The assay is described as follows: Human DNA polymerase β DdDp assay. As to the method:
(§1) The DNA-dependent DNA polymerization (DdDp) activity of human DNA polymerases α, β, and γ was measured as described previously. Briefly, the assays were run with 5 U/mL recombinant DNA polymerase α (CHIMERx, cat#1075-1), 0.5 U/mL recombinant DNA polymerase β (CHIMERx, cat#1077-1), or 0.1 μg/mL recombinant DNA polymerase γ (Abcam, cat#196066), 62 μg/mL activated calf thymus DNA, 50 mM Tris-HCl (pH 8.0), 60 mM KCl, 5 mM MgCl2, 4 mM dithiothreitol (DTT), 0.1 mg/mL BSA, 2 μM dCTP, 2 μM dATP, 2 μM dGTP, 0.05 μCi/μL ^3H-dTTP (Perkin Elmer) and compounds at various concentrations at 30 °C for 2 h. The 50 μL reactions were processed following the same filter plate method as described above for HIV-1 RT. Acid-precipitated tritiated DNA products retained on the filters were detected by a Trilux MicroBeta scintillation reader (Perkin Elmer). All data were analyzed as described above for HIV-1 RT.

For assay [2], the target named is T2, HBV polymerase (Hepatitis B virus genotype D subtype ayw, UniProt P03156).
T2 construct: Recombinant HBV polymerase (Hepatitis B virus genotype D subtype ayw, full length); made in house; host or cells: Sf9 insect cells (baculovirus)
The assay is described as follows: HBV polymerase RdDp activity assay. As to conditions: read-out: HBV pol IC50. From the text:
HIV-1 reverse transcriptase (HIV-1 RT) was purchased from Abcam (cat#ab63979). Recombinant HBV polymerase (Hepatitis B virus genotype D subtype ayw, full length) was cloned using the baculovirus system, expressed in sf9 cells, and purified with similar strategy and methods described by Lanford et al.. A DNA primer (5′-[…]-3′) was synthesized by IDTDNA and a 358-nt RNA template was synthesized in-house using Megascript T7 transcription kit (ThermoFisher, cat#AM1334). dNTPs were purchased from Thermo Fisher and ^3H-dTTP from Perkin Elmer. Filter plates were purchased from Millipore (cat#MABN0V050) and microscint-20 was purchased from Perkin Elmer (cat#6013621).
The RdDp activity of HBV polymerase was measured similarly as described for the HIV-1 RT. To test compound inhibition effect, the reactions were performed at 30 °C for 120 min in a reaction mixture containing reaction buffer (50 mM Tris-Cl, pH 7.5, 100 mM KCl, 12.5 mM MgCl2, 4 mM DTT), 15 µg/mL polymerase, 0.5 µM DNA primer, 0.05 µM RNA template, 10% DMSO, 0.046 µM dATP, 0.057 µM dGTP, 0.017 µM dCTP, 0.32 µM ^3H-dTTP, and compounds at various concentrations.
All data were analyzed with GraphPad Prism. […]

The target in assay [3] is T3, human DNA polymerase α (Homo sapiens, UniProt P09884).
T3 construct: purchased CHIMERx 1075-1
T3 sequence (P09884 1-1462): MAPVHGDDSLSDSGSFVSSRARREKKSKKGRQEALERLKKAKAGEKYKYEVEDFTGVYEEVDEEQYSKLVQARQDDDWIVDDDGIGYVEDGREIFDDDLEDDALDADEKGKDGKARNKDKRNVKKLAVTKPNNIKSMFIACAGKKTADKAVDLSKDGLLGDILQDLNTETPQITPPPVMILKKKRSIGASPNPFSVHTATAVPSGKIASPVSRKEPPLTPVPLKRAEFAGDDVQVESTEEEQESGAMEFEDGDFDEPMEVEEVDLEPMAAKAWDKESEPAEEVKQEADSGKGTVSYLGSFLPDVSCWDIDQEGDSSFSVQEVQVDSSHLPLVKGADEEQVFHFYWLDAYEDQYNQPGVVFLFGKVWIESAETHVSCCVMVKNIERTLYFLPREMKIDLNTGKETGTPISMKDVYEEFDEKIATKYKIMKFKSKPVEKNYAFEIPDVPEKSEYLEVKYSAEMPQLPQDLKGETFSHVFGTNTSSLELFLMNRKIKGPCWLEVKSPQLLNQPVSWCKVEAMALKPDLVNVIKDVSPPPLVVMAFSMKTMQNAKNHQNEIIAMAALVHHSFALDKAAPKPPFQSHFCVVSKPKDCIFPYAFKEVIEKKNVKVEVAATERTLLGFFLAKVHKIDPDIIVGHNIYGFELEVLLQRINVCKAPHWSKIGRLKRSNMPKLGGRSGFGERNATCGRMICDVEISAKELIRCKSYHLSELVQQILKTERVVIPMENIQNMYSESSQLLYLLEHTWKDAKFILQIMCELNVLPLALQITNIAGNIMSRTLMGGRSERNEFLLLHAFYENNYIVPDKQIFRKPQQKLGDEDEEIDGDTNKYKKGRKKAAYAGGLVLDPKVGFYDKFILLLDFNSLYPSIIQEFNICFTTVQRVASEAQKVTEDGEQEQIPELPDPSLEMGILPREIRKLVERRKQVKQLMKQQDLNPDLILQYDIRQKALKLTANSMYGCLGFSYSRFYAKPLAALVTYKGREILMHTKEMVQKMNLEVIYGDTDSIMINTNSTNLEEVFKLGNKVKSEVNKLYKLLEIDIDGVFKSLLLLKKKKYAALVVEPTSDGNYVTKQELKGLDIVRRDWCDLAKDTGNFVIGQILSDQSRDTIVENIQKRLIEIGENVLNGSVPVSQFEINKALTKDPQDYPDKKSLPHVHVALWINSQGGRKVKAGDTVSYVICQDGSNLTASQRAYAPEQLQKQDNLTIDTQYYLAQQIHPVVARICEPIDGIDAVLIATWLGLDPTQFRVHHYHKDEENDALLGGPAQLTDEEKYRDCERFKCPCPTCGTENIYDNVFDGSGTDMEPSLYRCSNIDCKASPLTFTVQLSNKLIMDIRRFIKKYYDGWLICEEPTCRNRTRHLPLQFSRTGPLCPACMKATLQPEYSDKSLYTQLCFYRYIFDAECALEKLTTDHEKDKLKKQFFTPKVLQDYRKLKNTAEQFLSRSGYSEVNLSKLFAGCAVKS
The assay is described as follows: Human DNA polymerase α DdDp assay. As to the method: as §1

The record followed here is PMC9025269, “Synthesis and Anti-Hepatitis B Activities of 3′-Fluoro-2′-Substituted Apionucleosides” (Molecules, 2022).

T2 sequence (P03156 whole entry): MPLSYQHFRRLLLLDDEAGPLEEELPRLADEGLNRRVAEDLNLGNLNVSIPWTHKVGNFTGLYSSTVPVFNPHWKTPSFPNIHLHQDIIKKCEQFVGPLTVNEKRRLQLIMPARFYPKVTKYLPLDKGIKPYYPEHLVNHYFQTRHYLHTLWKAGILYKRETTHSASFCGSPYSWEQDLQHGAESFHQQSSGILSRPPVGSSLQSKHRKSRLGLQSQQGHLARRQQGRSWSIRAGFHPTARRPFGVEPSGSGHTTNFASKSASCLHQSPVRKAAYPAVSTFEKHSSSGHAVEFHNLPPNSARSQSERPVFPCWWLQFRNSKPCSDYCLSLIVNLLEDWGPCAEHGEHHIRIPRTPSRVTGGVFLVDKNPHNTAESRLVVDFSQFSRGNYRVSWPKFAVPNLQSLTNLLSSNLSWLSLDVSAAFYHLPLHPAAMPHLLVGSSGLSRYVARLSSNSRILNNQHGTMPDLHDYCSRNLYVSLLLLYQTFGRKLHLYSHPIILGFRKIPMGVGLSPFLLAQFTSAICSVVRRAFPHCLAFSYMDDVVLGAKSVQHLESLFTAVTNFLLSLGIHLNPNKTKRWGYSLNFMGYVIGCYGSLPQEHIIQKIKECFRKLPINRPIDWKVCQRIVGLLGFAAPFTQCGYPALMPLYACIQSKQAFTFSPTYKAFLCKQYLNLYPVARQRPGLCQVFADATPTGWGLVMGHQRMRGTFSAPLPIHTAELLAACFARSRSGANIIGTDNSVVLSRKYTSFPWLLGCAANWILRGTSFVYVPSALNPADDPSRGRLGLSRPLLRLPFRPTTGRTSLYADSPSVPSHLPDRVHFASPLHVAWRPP

Turning to `Nc1ncnc2c1ncn2[C@@H]1OC[C@](F)(COP(=O)(O)OP(=O)(O)OP(=O)(O)O)[C@H]1CO` [Compound 38, ((3S,4S,5R)-5-(6-Amino-9H-purin-9-yl)-3-fluoro-4-(hydroxymethyl)tetrahydrofuran-3-yl)methyl triphosphate], the figures for the IC50 in assay [1], in assay [2] and in assay [3] were over 100 µM, 0.12 µM and 80 µM, respectively. The “inhibition of human DNA polymerases” value in assay [3] (human DNA polymerases α, β and γ together) is given as “low or no inhibition activity against human DNA polymerases”.
